Results published in patent US12152034B2, “FGFR inhibitors and methods of making and using the same” (Relay Therapeutics, Inc., priority 2020, dated 2024).
“Also recorded” adds a separate entry of the source.

Tests used:
Format in all cases: physicochemical
[1] = Solubility in Fasted State Simulated Intestinal Fluid (FaSSIF) and final pH in solution, salt screen of compound I-2; conditions: for Final pH: final pH in solution of the FaSSIF solubility sample
Method: (§1) The free base of Compound I-1 (compound I-2, 30 mg) was suspended in IPA (20 Vol., 600 μl at 50° C.). The suspensions were then cooled down to 5° C. at 0.1° C./min and were held at this temperature for 16 hrs. Stirring (500 rpm) was maintained throughout. Any gums that formed were maturated between 25 and 50° C. (4 hours at each temperature for 24 hrs). The suspensions were isolated by filtration under suction and air dried then analysed by XRPD. Any new patterns identified by XRPD were analysed further by NMR, TGA, DSC and stability at 40 C/75% RH for 1 week.
Several samples were analyzed for solubility in Fasted State Simulated Intestinal Fluid (FaSSIF) and final pH in solution.

[2] = Solubility in organic solvents quoted in competitive suspension equilibration studies; conditions: organic solvent or mixture
[3] = Storage at 40° C./75% RH for 7 days (one week), form checked by XRPD; conditions: 40° C./75% RH, one week (7 days)
Method: as §1, with “The” for “The free base of Compound I-1 (compound I-2, 30 mg) was suspended in IPA (20 Vol., 600 μl at 50° C.). The”

[4] = Solubility assessment in solvents by aliquot addition (5-40 vol, 25° C., then heating); conditions: for solubility in the solvents tested (in words): 13 solvents, up to 40 vol; for Observation after treatment: 40 vol
Method: Compound II-1 (40 mg) was treated with an aliquot of solvent (200 μl for 5 vol, 400 μl for 10 vol, 800 μl for 20 vol) and left to stir at 25° C. for 15 minutes. After 15 minutes, suspensions were treated with another aliquot of solvent and left to stir for the same duration again. Any solutions were removed from stirring and further solvent additions. This procedure was repeated up to 40 vol.
At 40 vol, any remaining suspensions were heated to 40° C. at a rate of 10° C./min. Samples that remained as suspensions at 40° C. were moved to the maturation chamber (RT/50° C.) for 4 days. All solutions from solvent additions were heated to 50° C. before cooling to 5° C. at a rate of 0.1° C./min, then held at 5° C. overnight. […]

[5] = Hygroscopicity suggested by Thermal Gravimetric Analysis (TGA) weight loss; conditions: suggested by TGA weight loss / 1H NMR solvent content
Method: Thermal Gravimetric Analysis (TGA): TGA data was collected on a TA Instruments Q5000 TGA. A predefined amount of the sample, 2.0 to 10.0 mg, was placed in an aluminum pan and heated at 10° C./minute from 40° C. to 300° C., or varied as experimentation dictated. A purge of dry nitrogen at 25 ml/minute was maintained over the sample. The instrument control and data acquisition are acquired using Q Advantage software release version 5.5.23. The data was processed and presented using the TA Universal Analysis 2000 software version 4.5A build 4.5.0.5.

[6] = Solubility measurements in SGF, FeSSIF and FaSSIF with XRPD of residual solids
Excerpt: The results from the solubility measurements in simulated gastric fluid (SGF), simulated fed state conditions in the small intestines (FeSSIF), and simulated fasting state conditions in the small intestines fluid (FaSSIF) are summarised in Table 12. The salts show reduced solubility in SGF compared to the free form.
Crystalline FB Form A, HCl Form A, and the sufate salt Form A were scaled up for solubility analysis.
HCl Form A was successfully scaled up for solubility analysis.

[7] = listed as Compound III-1 Form A
[8] = listed as Compound III-1 Form B

C=C(C)C(=O)Nc1ccc(-c2c(-c3ccc(Oc4nccc(C)n4)c(F)c3)c3c(N)ncnc3n2C)cc1.Cl [Compound I-1, N-(4-(4-amino-5-(3-fluoro-4-((4-methylpyrimidin-2-yl)oxy)phenyl)-7-methyl-7H-pyrrolo[2,3-d]pyrimidin-6-yl)phenyl)methacrylamide hydrochloride]
Solubility ([1]; Fasted State Simulated Intestinal Fluid (FaSSIF), fassif, thermodynamic from solid, Fasted State Simulated Intestinal Fluid, solids from salt screen in IPA): 5.1 µg/mL | Final pH [1]: 4.06 | Solubility ([2]; ethanol): 2300 µg/mL | Solubility ([2]; methanol): 18700 µg/mL

C=C(C)C(=O)Nc1ccc(-c2c(-c3ccc(Oc4nccc(C)n4)c(F)c3)c3c(N)ncnc3n2C)cc1 [Compound I-3]
Solubility in FaSSIF ([1]; Fasted State Simulated Intestinal Fluid, solids from salt screen in IPA, listed as HBr - Form A): 4.5 µg/mL | Final pH ([1]; listed as HBr - Form A): 5.5

C=C(C)C(=O)Nc1ccc(-c2c(-c3ccc(Oc4nccc(C)n4)c(F)c3)c3c(N)ncnc3n2C)cc1 [Compound I-4]
Solubility in FaSSIF ([1]; Fasted State Simulated Intestinal Fluid, solids from salt screen in IPA, listed as Sulfate - Form B): 1.2 µg/mL | Final pH ([1]; listed as Sulfate - Form B): 5.86

C=C(C)C(=O)Nc1ccc(-c2c(-c3ccc(Oc4nccc(C)n4)c(F)c3)c3c(N)ncnc3n2C)cc1 [Compound I-6]
Solubility in FaSSIF ([1]; Fasted State Simulated Intestinal Fluid, solids from salt screen in IPA, listed as Mesylate - Form A): 6.5 µg/mL | Final pH ([1]; listed as Mesylate - Form A): 4.82

C=C(C)C(=O)Nc1ccc(-c2c(C3=CC[C@H](C(=O)N4CCCC4)CC3)c3c(N)ncnc3n2C)c(C)c1 [Compound II-1, (R)—N-(4-(4-amino-7-methyl-5-(4-(pyrrolidine-1-carbonyl)cyclohex-1-en-1-yl)-7H-pyrrolo[2,3-d]pyrimidin-6-yl)-3-methylphenyl)methacrylamide]
XRPD after storage at 40° C./75% RH for 7 days ([3]; listed as Compound II-1 Form A): no change; also recorded: Unchanged | XRPD after storage at 40° C./75% RH for 7 days ([3]; listed as Compound II-1 Form B): Unchanged | solubility (solvent volumes to give a clear solution) ([4]; 10% H2O/IPA, 25° C.): 10 vol | solubility in the solvents tested (in words) [4]: reasonable solubility in polar solvents | solubility (solvent volumes to give a clear solution) ([4]; THF, 25° C.): 20 vol | solubility (solvent volumes to give a clear solution) ([4]; ethanol, 25° C.): 20 vol | hygroscopicity (in words) ([5]; listed as Compound 1 Pattern 2): hygroscopic | hygroscopicity (in words) ([5]; listed as Compound II-1 Form A): slightly hygroscopic

C=C(C)C(=O)Nc1ccc(-c2c(C3=CC[C@H](C(=O)N4CCCC4)CC3)c3c(N)ncnc3n2C)c(C)c1.CS(=O)(=O)O [Compound II-5]
XRPD after storage at 40° C./75% RH for 7 days [3]: no change | hygroscopicity (in words) [5]: hygroscopic

C#Cc1cc(OC)c(-c2c(-c3ccc(Oc4nccc(C)n4)c(F)c3)c3c(C)ncnc3n2C)cn1 [Compound III-1, 6-(6-ethynyl-4-methoxypyridin-3-yl)-5-(3-fluoro-4-((4-methylpyrimidin-2-yl)oxy)phenyl)-4,7-dimethyl-7H-pyrrolo[2,3-d]pyrimidine]
XRPD after storage at 40° C./75% RH for 7 days [3, 7]: no change in form | XRPD after storage at 40° C./75% RH for 7 days [3, 8]: conversion to Form A (plus additional peaks) | XRPD after storage at 40° C./75% RH for 7 days ([3]; listed as Compound III-1 Form C): no change in form | XRPD of residual solids after solubility measurement ([6]; all media (SGF, FeSSIF, FaSSIF)): remained unchanged | solubility in FaSSIF (in words) ([6]; simulated fasting state intestinal fluid): lowest solubility | Observation after treatment ([4]; 2-Propanol, after maturation (RT/50° C.) 4 days): Suspension | Observation after treatment ([4]; 10% Water/IPA, after maturation (RT/50° C.) 4 days): Suspension | Observation after treatment ([4]; 10% Water/MeCN, after cooling from 50° C. to 5° C.): Clear | solubility (solvent volumes to give a clear solution) ([4]; 10% water/MeCN, 50° C.): 40 vol | solubility in the solvents tested (in words) [4]: low solubility | Observation after treatment ([4]; Acetone, after cooling from 50° C. to 5° C.): Very thin | Observation after treatment ([4]; Ethanol, after maturation (RT/50° C.) 4 days): Suspension | Observation after treatment ([4]; Ethyl acetate, after maturation (RT/50° C.) 4 days): Suspension | Observation after treatment ([4]; Isopropyl acetate, after maturation (RT/50° C.) 4 days): Suspension | Observation after treatment ([4]; MEK, after maturation (RT/50° C.) 4 days): Suspension | Observation after treatment ([4]; Methanol, after cooling from 50° C. to 5° C.): Very thin | Observation after treatment ([4]; TBME, after maturation (RT/50° C.) 4 days): Suspension | solubility (solvent volumes to give a clear solution) ([4]; THF, 25° C.): 40 vol | Observation after treatment ([4]; THF, after cooling from 50° C. to 5° C.): Clear | Observation after treatment ([4]; Water, after maturation (RT/50° C.) 4 days): Suspension | solubility (solvent volumes to give a clear solution) ([4]; acetone, 50° C.): 40 vol | solubility (solvent volumes to give a clear solution) ([4]; methanol, 50° C.): 40 vol | Observation after treatment ([4]; n-Heptane, after maturation (RT/50° C.) 4 days): Suspension | hygroscopicity (in words) [5, 7]: potentially hygroscopic | hygroscopicity (in words) [5, 8]: possibly hygroscopic
